Values joined by “and” are separate entries in the source; they are usually repeats but may differ in a detail not shown here. Equal values may be shown once. “Also recorded” adds a separate entry of the source. Read-outs that look alike come from different tables or passages of the source. Blank lines part the entries; values can stand above or below the molecule they belong to.
Assays:
[1] = target: T1, Nurr1 LBD (Homo sapiens, UniProt P43354); experiment: Isothermal titration calorimetry (ITC); type: binding; settings: ITC at 25°C
T1 construct: Nurr1 LBD protein (10-30 µM, expressed as described previously^21); made in house
T1 sequence (P43354 360-595 limits assumed): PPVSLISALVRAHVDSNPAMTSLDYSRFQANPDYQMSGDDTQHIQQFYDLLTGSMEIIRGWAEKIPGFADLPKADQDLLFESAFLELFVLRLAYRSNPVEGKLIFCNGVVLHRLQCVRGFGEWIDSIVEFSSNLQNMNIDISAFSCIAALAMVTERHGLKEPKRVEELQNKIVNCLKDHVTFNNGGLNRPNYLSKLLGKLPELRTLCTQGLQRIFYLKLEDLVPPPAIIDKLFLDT
Description: Isothermal Titration Calorimetry (ITC). ITC experiments were conducted on an Affinity ITC instrument (TA Instruments, New Castle, DE) at 25°C with a stirring rate of 75 rpm. Nurr1 LBD protein (10-30 µM, expressed as described previously^21) in buffer (20 mM Tris pH 7.5, 100 mM NaCl, 5% glycerol) containing 1-4% DMSO was titrated with the test compounds (60-150 µM in the same buffer containing 1-4% DMSO) in 26 injections (1x 1 µL, 25x 3-4 µL) with an injection interval of 150 s. As control experiments, the test compounds were titrated to the buffer, and the buffer was titrated to the Nurr1 LBD protein under otherwise identical conditions. Results were analyzed using NanoAnalyze software (version 3.11.0, TA Instruments, New Castle, DE) with independent binding models.

[2] = target: T2, Nurr1 (Homo sapiens, UniProt P43354); experiment: Gal4-Nurr1 hybrid reporter gene assay in HEK293T cells; type: cell-based; design: expressed in transfected cells; host or cells: HEK293T; settings: for EC50: Gal4-Nurr1 hybrid reporter gene assay; for EC50 / max. activation: mean±SD, n≥3; for max. activation: maximum effect vs. 0.1% DMSO control; for EC50(Nurr1) (max. activation): result in words, at 100 µM
Description: (§1) Hybrid reporter gene assays. Nurr1 modulation was determined in a Gal4 hybrid reporter gene assay in HEK293T cells (German Collection of Microorganisms and Cell Culture GmbH, DSMZ) using pFR-Luc (Stratagene, La Jolla, CA, USA; reporter), pRL-SV40 (Promega, Madison, WI, USA; internal control) and pFA-CMV-hNurr1-LBD^14, coding for the hinge region and ligand binding domain of the canonical isoform of human Nurr1. […] After 24 h, medium was changed to Opti-MEM without supplements and cells were transiently transfected using Lipofectamine LTX reagent (Invitrogen, Carlsbad, CA, USA) according to the manufacturer's protocol. Five hours after transfection, cells were incubated with the test compounds in Opti-MEM supplemented with penicillin (100 U/mL), streptomycin (100 µg/mL) and 0.1% DMSO for 16 h before luciferase activity was measured using the Dual-Glo Luciferase Assay System (Promega) according to the manufacturer's protocol on a Tecan Spark luminometer (Tecan Deutschland GmbH, Crailsheim, Germany). Firefly luminescence was divided by Renilla luminescence and multiplied by 1000 resulting in relative light units (RLU) to normalize for transfection efficiency and cell growth. Fold activation was obtained by dividing the mean RLU of test compound by the mean RLU of the untreated control. All samples were tested in at least three biologically independent experiments in duplicates. For dose-response curve fitting and calculation of EC50 values, the equation "[Agonist] vs. response -- Variable slope (four parameters)" was used in GraphPad Prism (version 7.00, GraphPad Software, La Jolla, CA, USA). Selectivity profiling was performed with identical procedures using pFA-CMV-Nur77-LBD^14, pFA-CMV-NOR-1-LBD^14, pFA-CMV-THRα-LBD^39, pFA-CMV-RARα-LBD^40, pFA-CMV-PPARα-LBD^41, pFA-CMV-PPARγ-LBD^41, pFA-CMV-PPARδ-LBD^41, pFA-CMV-LXRα-LBD^37, pFA-CMV-FXR-LBD^42 and pFA-CMV-hRXRα-LBD^43.
Target sequence in this assay (P43354 360-595 limits assumed): as above

[3] = target: T2, Nurr1; experiment: Ligand efficiency metrics; settings: computed according to ref. 29
Target sequence in this assay (P43354 whole entry, the tested form may be a part, canonical isoform): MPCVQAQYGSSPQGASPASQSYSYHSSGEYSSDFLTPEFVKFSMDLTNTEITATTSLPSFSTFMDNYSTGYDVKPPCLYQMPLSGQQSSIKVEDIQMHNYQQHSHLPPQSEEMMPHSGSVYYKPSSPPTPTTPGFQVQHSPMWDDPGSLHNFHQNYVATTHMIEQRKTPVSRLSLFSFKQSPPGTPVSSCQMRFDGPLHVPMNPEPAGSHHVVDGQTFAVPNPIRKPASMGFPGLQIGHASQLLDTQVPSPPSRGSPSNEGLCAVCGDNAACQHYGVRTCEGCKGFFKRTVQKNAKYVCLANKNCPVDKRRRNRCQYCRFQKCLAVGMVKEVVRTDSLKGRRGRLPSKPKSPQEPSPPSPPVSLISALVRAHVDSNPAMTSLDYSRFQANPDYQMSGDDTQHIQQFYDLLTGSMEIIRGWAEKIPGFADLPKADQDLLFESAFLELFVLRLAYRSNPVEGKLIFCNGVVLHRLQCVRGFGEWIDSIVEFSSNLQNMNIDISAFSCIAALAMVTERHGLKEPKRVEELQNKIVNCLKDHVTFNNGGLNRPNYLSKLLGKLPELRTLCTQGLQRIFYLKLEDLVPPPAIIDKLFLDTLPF

[4] = target: T3, Nurr1 monomer (NBRE) (Homo sapiens, UniProt P43354); experiment: Full-length Nurr1 reporter gene assay, response element NBRE; type: cell-based; settings: result in words, at 1 µM
T3 construct: The full length human nuclear receptor Nurr1 (pcDNA3.1-hNurr1-NE; Addgene plasmid #102363); NE (suffix in the plasmid name); host or cells: HEK293T
T3 sequence (P43354 whole entry): as the sequence (P43354 whole entry, the tested form may be a part, canonical isoform) above
From the text: (§2) Full-length Nurr1 reporter gene assays. Activation of full length human Nurr1 was studied in transiently transfected HEK293T cells using the reporter plasmids pFR-Luc-NBRE^14, pFR-Luc-POMC^14 or pFR-Luc-DR5^14 each containing one copy of the respective human Nurr1 response element NBRE Nl3, NurRE, or DR5. The full length human nuclear receptor Nurr1 (pcDNA3.1-hNurr1-NE; Addgene plasmid #102363) and, for DR5, RXRα (pSG5-hRXR)^44 were overexpressed. pRL-SV40 (Promega) was used for normalization of transfection efficacy and to observe test compound toxicity. […] After 24 h, medium was changed to Opti-MEM without supplements and cells were transiently transfected using Lipofectamine LTX reagent (invitrogen) according to the manufacturer's protocol. Five hours after transfection, cells were incubated with the test compounds in Opti-MEM supplemented with penicillin (100 U/mL), streptomycin (100 µg/mL) and 0.1% DMSO for 16 h before luciferase activity was measured using the Dual-Glo Luciferase Assay System (Promega) according to the manufacturer's protocol on a Tecan Spark luminometer (Tecan Deutschland GmbH). Firefly luminescence was divided by Renilla luminescence and multiplied by 1000 resulting in relative light units (RLU) to normalize for transfection efficiency and cell growth. […]

[5] = target: T4, Nurr1-RXR heterodimer (DR5) (Homo sapiens, UniProt P43354); experiment: Full-length Nurr1 reporter gene assay, response element DR5 with RXRα; type: cell-based
T4 construct: The full length human nuclear receptor Nurr1 (pcDNA3.1-hNurr1-NE; Addgene plasmid #102363); NE (suffix in the plasmid name); host or cells: HEK293T
T4 sequence (P43354 whole entry): as the sequence (P43354 whole entry, the tested form may be a part, canonical isoform) above
T4 sequence (P19793 whole entry partner): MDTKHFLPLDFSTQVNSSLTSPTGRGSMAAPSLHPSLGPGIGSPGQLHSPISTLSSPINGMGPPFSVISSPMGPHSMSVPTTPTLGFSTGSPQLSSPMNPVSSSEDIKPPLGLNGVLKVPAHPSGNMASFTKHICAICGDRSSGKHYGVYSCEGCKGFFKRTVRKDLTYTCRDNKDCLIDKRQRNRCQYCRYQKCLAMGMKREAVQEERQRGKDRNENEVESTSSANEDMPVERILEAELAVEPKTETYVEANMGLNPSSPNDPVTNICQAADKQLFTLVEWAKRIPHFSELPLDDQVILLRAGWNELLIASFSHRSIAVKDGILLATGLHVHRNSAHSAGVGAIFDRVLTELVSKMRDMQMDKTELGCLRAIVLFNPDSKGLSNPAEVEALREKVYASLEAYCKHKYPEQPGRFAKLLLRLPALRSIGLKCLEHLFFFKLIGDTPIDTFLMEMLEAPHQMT
From the text: Full-length Nurr1 reporter gene assays. Activation of full length human Nurr1 was studied in transiently transfected HEK293T cells using the reporter plasmids pFR-Luc-NBRE^14, pFR-Luc-POMC^14 or pFR-Luc-DR5^14 each containing one copy of the respective human Nurr1 response element NBRE Nl3, NurRE, or DR5. The full length human nuclear receptor Nurr1 (pcDNA3.1-hNurr1-NE; Addgene plasmid #102363) and, for DR5, RXRα (pSG5-hRXR)^44 were overexpressed. pRL-SV40 (Promega) was used for normalization of transfection efficacy and to observe test compound toxicity. […] After 24 h, medium was changed to Opti-MEM without supplements and cells were transiently transfected using Lipofectamine LTX reagent (invitrogen) according to the manufacturer's protocol. Five hours after transfection, cells were incubated with the test compounds in Opti-MEM supplemented with penicillin (100 U/mL), streptomycin (100 µg/mL) and 0.1% DMSO for 16 h before luciferase activity was measured using the Dual-Glo Luciferase Assay System (Promega) according to the manufacturer's protocol on a Tecan Spark luminometer (Tecan Deutschland GmbH). Firefly luminescence was divided by Renilla luminescence and multiplied by 1000 resulting in relative light units (RLU) to normalize for transfection efficiency and cell growth. Fold activation was obtained by dividing the mean RLU of test compound by the mean RLU of the untreated control. All samples were tested in at least three biologically independent experiments in duplicates. For dose-response curve fitting and calculation of EC50 values, the equation "[Agonist] vs. response -- Variable slope (four parameters)" was used in GraphPad Prism (version 7.00, GraphPad Software).

[6] = test system: Nurr1-regulated tyrosine hydroxylase (TH), vesicular amino acid transporter 2 (VMAT2) and superoxide dismutase 2 (SOD2) in astrocytes (T98G); experiment: Nurr1-regulated gene expression in T98G cells (qPCR); type: cell-based, human; settings: 0.1 µM, 0.3 µM, mRNA vs. DMSO control
[7] = target: T5, Nur77 (Homo sapiens, UniProt P22736); experiment: Gal4 hybrid reporter gene assay, selectivity profiling (Nur77); type: cell-based
T5 construct: expressed in transfected cells; host or cells: HEK293T
T5 sequence (P22736 360-595 limits assumed): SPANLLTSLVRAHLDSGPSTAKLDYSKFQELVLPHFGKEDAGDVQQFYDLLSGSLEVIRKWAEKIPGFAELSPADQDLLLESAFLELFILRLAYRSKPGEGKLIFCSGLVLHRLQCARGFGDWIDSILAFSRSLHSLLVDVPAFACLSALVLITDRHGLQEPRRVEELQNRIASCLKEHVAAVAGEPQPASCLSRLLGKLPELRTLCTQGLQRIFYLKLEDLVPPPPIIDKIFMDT
Description: as §1, with “For dose-response curve fitting and calculation of EC50 values, the equation "[Agonist] vs. response -- Variable slope (four parameters)" was used in GraphPad Prism (version 7.00, GraphPad Software, La Jolla, CA, USA). Selectivity profiling was performed with identical procedures using pFA-CMV-Nur77-LBD^14, pFA-CMV-NOR-1-LBD^14, pFA-CMV-THRα-LBD^39, pFA-CMV-RARα-LBD^40, pFA-CMV-PPARα-LBD^41, pFA-CMV-PPARγ-LBD^41, pFA-CMV-PPARδ-LBD^41, pFA-CMV-LXRα-LBD^37, pFA-CMV-FXR-LBD^42 and pFA-CMV-hRXRα-LBD^43.” left out

[8] = target: T6, Nurr1 homodimer (NurRE) (Homo sapiens, UniProt P43354); experiment: Full-length Nurr1 reporter gene assay, response element NurRE; type: cell-based
T6 construct: The full length human nuclear receptor Nurr1 (pcDNA3.1-hNurr1-NE; Addgene plasmid #102363); host or cells: HEK293T
T6 sequence (P43354 whole entry): as the sequence (P43354 whole entry, the tested form may be a part, canonical isoform) above
From the text: as §2

[9] = test system: THRα, RARα, PPARα, PPARγ, PPARδ, LXRα, FXR, RXRα; experiment: Selectivity screening on nuclear receptors outside the NR4A family (Gal4 hybrid reporter gene assays); type: cell-based
Description: as §1, with “For dose-response curve fitting and calculation of EC50 values, the equation "[Agonist] vs. response -- Variable slope (four parameters)" was used in GraphPad Prism (version 7.00, GraphPad Software, La Jolla, CA, USA). Selectivity profiling was performed with identical procedures using pFA-CMV-Nur77-LBD^14, pFA-CMV-NOR-1-LBD^14, pFA-CMV-THRα-LBD^39, pFA-CMV-RARα-LBD^40, pFA-CMV-PPARα-LBD^41, pFA-CMV-PPARγ-LBD^41, pFA-CMV-PPARδ-LBD^41, pFA-CMV-LXRα-LBD^37, pFA-CMV-FXR-LBD^42 and pFA-CMV-hRXRα-LBD^43.” left out

[10] = Determination of aqueous solubility; type: physicochemical; settings: water, 24 h, 25°C
Description: Determination of aqueous solubility. […] The mixture was agitated in a VWR Thermal Shake lite (VWR International GmbH, Darmstadt, Germany) for 24 h at 600 rpm and constant temperature of 25°C. The supersaturated mixtures were subsequently centrifuged at 23.300 rpm for 15 min (25 °C). Part of the supernatant was taken off for quantification by UV absorbance at 312 nm with external calibration. The external calibration samples contained 1% DMSO and the test samples were spiked with DMSO to 1% concentration right before the measurement. Absorbance was measured with a Tecan Spark luminometer (Tecan Deutschland GmbH, Crailsheim, Germany). The solubility test was repeated in three independent experiments, […]

Kd [1]: 2700 nM
EC50 [2]: 7000 ± 1000 nM
max. activation [2]: 2.0±0.1 fold
ligand efficiency (LE) [3]: 0.59
lipophilic ligand efficiency (LLE) [3]: 3.28
size-independent ligand eff. (SILE) [3]: 2.45
Compound: Cc1nc2c(Cl)cccn2c1N [Compound 8, 8-Chloro-2-methylimidazo[1,2-a]pyridine-3-amine]

Compound: Nc1c(-c2ccc(Cl)cc2)nc2c(Cl)cccn12 [Compound 17]
EC50 [2]: 15000 ± 3000 nM
max. activation [2]: 1.7±0.2 fold

Compound: CNc1ccc(-c2ccc(C(=O)Nc3c(C)nc4c(Cl)cccn34)o2)cc1 [Compound 35]
EC50 [2]: 300 ± 20 nM

Compound: COc1ccc(-c2ccc(C(=O)Nc3c(C)nc4c(Cl)cccn34)o2)cc1 [Compound 34]
EC50 [2]: 160 ± 60 nM
max. activation [2]: 1.7±0.1 fold

Compound: Cc1ccc(-c2nc3c(Cl)cccn3c2N)cc1C [Compound 25]
EC50 [2]: 14000 ± 2000 nM
max. activation [2]: 1.6±0.1 fold

EC50(Nurr1) (max. activation) [2]: inactive (100 µM)
Compound: Nc1cnc2c(Cl)cccn12 [Compound 12, 3-Amino-8-chloroimidazo[1,2-a]pyridine]

enhancement of potency by bexarotene (factor) ([5]; DR5, 0.1 µM BEX): > 5
EC50 ([5]; with 0.1 µM bexarotene (BEX)): 33 nM
EC50 ([5]; without bexarotene, read-out: EC50(DR5)): 165 nM
Kd [1]: 170 nM
EC50 [7]: 330 ± 40 nM
EC50 [8]: 94 ± 3 nM
EC50 [2]: 90 ± 5 nM
activity outside the NR4A family ([9]; at 3 µM, n=3): no off-target activity
aq. solubility [10]: 6.8 µg/mL
Compound: Cc1nc2c(Cl)cccn2c1NC(=O)c1ccc(-c2ccc(N(C)C)cc2)o1 [Compound 36, N-(8-Chloro-2-methylimidazo[1,2-a]pyridin-3-yl)-5-(4-(dimethylamino)phenyl)furan-2-carboxamide]
EC50(NBRE) [4]: inactive; also recorded: no activation (1 µM)
expression of superoxide dismutase 2 (SOD2) [6]: induced expression
expression of tyrosine hydroxylase (TH) [6]: induced expression
expression of vesicular amino acid transporter 2 (VMAT2) [6]: induced expression
selectivity ([9]; Nurr1 vs. nuclear receptors outside the NR4A family): > 30 fold

Compound: Clc1cccn2ccnc12 [Compound 11]
EC50(Nurr1) (max. activation) [2]: inactive (100 µM)

Compound: Nc1c(-c2ccoc2)nc2c(Cl)cccn12 [Compound 16]
max. activation [2]: < 1.2 fold
EC50(Nurr1) (max. activation) [2]: inactive

max. activation [2]: < 1.2-fold act.
Compound: Nc1c(-c2cccc(C(F)(F)F)c2)nc2c(Cl)cccn12 [Compound 23]

Compound: Cc1nc2c(Cl)cccn2c1NC(=O)c1ccc(-c2ccc(Cl)cc2)o1 [Compound 26]
Kd [1]: 700 nM
EC50 [2]: 1600 ± 500 nM
max. activation [2]: 1.8±0.1 fold

Compound: Nc1c(-c2cccc(Cl)c2)nc2c(Cl)cccn12 [Compound 18]
EC50 [2]: 9000 ± 3000 nM
max. activation [2]: 1.7±0.1 fold

Kd [1]: 700 nM
increase in potency over 8 [2]: 7 fold
EC50 [2]: 400 nM
max. activation [2]: 1.8 fold and 1.8±0.1 fold
Compound: Nc1c(-c2ccc(Cl)c(Cl)c2)nc2c(Cl)cccn12 [Compound 24, 8-Chloro-2-(3,4-dichlorophenyl)imidazo[1,2-a]pyridine-3-amine]

Compound: Cc1nc2c(Cl)cccn2c1NC(=O)c1ccc(-c2ccccc2)s1 [Compound 28]
EC50 [2]: 3200 ± 400 nM
max. activation [2]: 2.1±0.1 fold

Compound: Cc1nc2c(Cl)cccn2c1NC(=O)c1ccc(-c2ccc(OC(F)(F)F)cc2)o1 [Compound 33]
EC50 [2]: 800 ± 200 nM
